Measured values: patent publication US20240293413A1, “COMPOUND AND METHOD FOR TREATING CHEMOTHERAPY-RELATED GASTROINTESTINAL SIDE EFFECTS” (ONQUALITY PHARMACEUTICALS CHINA LTD., priority 2021, published 2024)

Experiments:
Format in all cases: in vivo
[1] = system: Chemotherapeutic agent-caused diarrhea models of Balb/c mice; assay: Examples 1-229 (Table 3): oral CDK inhibitor, relief of diarrhea caused by a chemotherapeutic agent;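 also: percent of treated mice whose diarrhea grade fell below chemotherapy-group average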
[2] = system: Chemotherapeutic agent-caused constipation models of Balb/c mice; assay: Examples 272-342 (Table 5): oral CDK inhibitor, relief of constipation caused by a chemotherapeutic agent;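 also: percent of treated mice relieved versus chemotherapy group by feces reduction rate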
Excerpt: Construction of mouse animal models: Chemotherapeutic agent-caused constipation models of Balb/c mice were constructed according to the administration mode and frequency of the chemotherapeutic agent as shown in Table 5.
Balb/c mice were fed for 1 week, and then divided into groups. The experiment was divided into a control group, a chemotherapeutic agent group, and a CDK inhibitor group, each of which comprised 10 mice, to perform the administration experiment, for which the administration dosage, mode, time and frequency were shown in Table 5. The control group: being intragastrically administered with the same solvent as that used in the CDK inhibitor group (the time was shown in Table 5), and then being injected/intragastrically administered with the same solvent as that used in the chemotherapeutic agent group (the administration mode was shown in Table 5): the chemotherapeutic agent group: being intragastrically administered with the same solvent as that used in the CDK inhibitor group (the time was shown in […]), and then being injected/intragastrically administered with the chemotherapeutic agent (the type, administration mode and dosage were shown in Table 5): the CDK inhibitor group: being intragastrically administered with the CDK inhibitor (the time was shown in Table 5), and then being administered with the chemotherapeutic agent (the mode and dosage were shown in Table 5).
(§1) Feces reduction rate (%)=(the control group−the chemotherapeutic agent group or the CDK inhibitor group)/the control group*100%
(§2) The feces amount of mice within 3 hours was observed and recorded every day.

[3] = system: constipation caused by a chemotherapeutic agent in Balb/c mice; assay: Examples 406-443 (Table 8): various administration modes of the CDK inhibitor, relief of constipation caused by a chemotherapeutic agent; conditions: for Relative remission rate of oral administration: CDK inhibitor oral 150 mg/kg single;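 as to all read-outs here: percent of treated mice relieved versus chemotherapy group by feces reduction rate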
Excerpt: Balb/c mice were fed for 1 week, and then divided into groups. The experiment was divided into a control group, a chemotherapeutic agent group, CDK inhibitor groups (including an oral administration group of a CDK inhibitor, an intravenous injection group of a CDK inhibitor, an intraperitoneal injection group of a CDK inhibitor, an intramuscular injection group of a CDK inhibitor, a local administration group of a CDK inhibitor), each of which comprised 10 mice, to perform the administration experiment, for which the administration dosage, mode, time and frequency were shown in Table 8. The control group: being administered with the same solvent as that used in the CDK inhibitor group (the time and mode were shown in Table 8), and then being injected/intragastrically administered with the same solvent as that used in the chemotherapeutic agent group (the administration mode was shown in Table 8): the chemotherapeutic agent group: being administered with the same solvent as that used in the CDK inhibitor group (the time and mode were shown in Table 8), and then being injected/intragastrically administered with the chemotherapeutic agent (the type, administration mode and dosage were shown in Table 8): the oral administration group of the CDK inhibitor: being intragastrically administered with the CDK inhibitor (the time was shown in Table 8), and then being administered with the chemotherapeutic agent (the mode and dosage were shown in Table 8): the intravenous injection group of the CDK inhibitor: being injected with the CDK inhibitor through tail vein (the time was shown in Table 8), and then being administered with the chemotherapeutic agent (the mode and dosage were shown in Table 8): the intraperitoneal injection group of the CDK inhibitor: being intraperitoneally injected with the CDK inhibitor (the time was shown in Table 8), and then being administered with the chemotherapeutic agent (the mode and dosage were shown in Table 8): the intramuscular injection group of the CDK inhibitor: being intramuscularly injected with the CDK inhibitor (the time was shown in Table 8), and then being administered with the chemotherapeutic agent (the mode and dosage were shown in Table 8); and the local administration group of the CDK inhibitor: the hair on the abdomen of mice was shaved (about 2 cm*2 cm), being applied with the CDK inhibitor (the time was shown in Table 8), and then being administered with the chemotherapeutic agent (the mode and dosage were shown in Table 8).
as §1, §2

CCN1CCN(Cc2ccc(Nc3ncc(F)c(-c4cc(F)c5nc(C)n(C(C)C)c5c4)n3)nc2)CC1 [Abemaciclib]
Relative remission rate (%) ([1]; Example 48, Fluorouracil (5-Fu) intramuscular injection 125 mg/kg single, CDK inhibitor oral 150 mg/kg single 8 h before, cycle 10 days): 40% | Relative remission rate (%) ([1]; Example 89, Irinotecan (CPT-11) intraperitoneal injection 240 mg/kg single, CDK inhibitor oral 150 mg/kg single 0.5 h before, cycle 7 days): 30% | Relative remission rate (%) ([1]; Example 90, Irinotecan (CPT-11) intraperitoneal injection 240 mg/kg single, CDK inhibitor oral 150 mg/kg single 1 h before, cycle 7 days): 30% | Relative remission rate (%) ([1]; Example 91, Irinotecan (CPT-11) intraperitoneal injection 240 mg/kg single, CDK inhibitor oral 150 mg/kg single 2 h before, cycle 7 days): 40% | Relative remission rate (%) ([1]; Example 92, Irinotecan (CPT-11) intraperitoneal injection 240 mg/kg single, CDK inhibitor oral 150 mg/kg single 3 h before, cycle 7 days): 30% | Relative remission rate (%) ([1]; Example 93, Irinotecan (CPT-11) intraperitoneal injection 240 mg/kg single, CDK inhibitor oral 150 mg/kg single 4 h before, cycle 7 days): 50% | Relative remission rate (%) ([1]; Example 94, Irinotecan (CPT-11) intraperitoneal injection 240 mg/kg single, CDK inhibitor oral 150 mg/kg single 5 h before, cycle 7 days): 60% | Relative remission rate (%) ([1]; Example 95, Irinotecan (CPT-11) intraperitoneal injection 240 mg/kg single, CDK inhibitor oral 150 mg/kg single 6 h before, cycle 7 days): 60% | Relative remission rate (%) ([1]; Example 96, Irinotecan (CPT-11) intraperitoneal injection 240 mg/kg single, CDK inhibitor oral 150 mg/kg single 7 h before, cycle 7 days): 60% | Relative remission rate (%) ([1]; Example 97, Irinotecan (CPT-11) intraperitoneal injection 240 mg/kg single, CDK inhibitor oral 150 mg/kg single 8 h before, cycle 7 days): 70% | Relative remission rate (%) ([1]; Example 98, Irinotecan (CPT-11) intraperitoneal injection 240 mg/kg single, CDK inhibitor oral 150 mg/kg single 9 h before, cycle 7 days): 50% | Relative remission rate (%) ([1]; Example 99, Irinotecan (CPT-11) intraperitoneal injection 240 mg/kg single, CDK inhibitor oral 12.5 mg/kg single 10 h before, cycle 7 days): 20% | Relative remission rate (%) ([1]; Example 100, Irinotecan (CPT-11) intraperitoneal injection 240 mg/kg single, CDK inhibitor oral 25 mg/kg single 10 h before, cycle 7 days): 40% | Relative remission rate (%) ([1]; Example 101, Irinotecan (CPT-11) intraperitoneal injection 240 mg/kg single, CDK inhibitor oral 50 mg/kg single 10 h before, cycle 7 days): 80% | Relative remission rate (%) ([1]; Example 102, Irinotecan (CPT-11) intraperitoneal injection 240 mg/kg single, CDK inhibitor oral 100 mg/kg single 10 h before, cycle 7 days): 50% | Relative remission rate (%) ([1]; Example 103, Irinotecan (CPT-11) intraperitoneal injection 240 mg/kg single, CDK inhibitor oral 150 mg/kg single 10 h before, cycle 7 days): 70% | Relative remission rate (%) ([1]; Example 104, Irinotecan (CPT-11) intraperitoneal injection 240 mg/kg single, CDK inhibitor oral 100 mg/kg single 11 h before, cycle 7 days): 80% | Relative remission rate (%) ([1]; Example 105, Irinotecan (CPT-11) intraperitoneal injection 240 mg/kg single, CDK inhibitor oral 100 mg/kg single 12 h before, cycle 7 days): 80% | Relative remission rate (%) ([1]; Example 106, Irinotecan (CPT-11) intraperitoneal injection 240 mg/kg single, CDK inhibitor oral 100 mg/kg single 14 h before, cycle 7 days): 90% | Relative remission rate (%) ([1]; Example 107, Irinotecan (CPT-11) intraperitoneal injection 240 mg/kg single, CDK inhibitor oral 100 mg/kg single 16 h before, cycle 7 days): 70% | Relative remission rate (%) ([1]; Example 108, Irinotecan (CPT-11) intraperitoneal injection 240 mg/kg single, CDK inhibitor oral 100 mg/kg single 18 h before, cycle 7 days): 70% | Relative remission rate (%) ([1]; Example 109, Irinotecan (CPT-11) intraperitoneal injection 240 mg/kg single, CDK inhibitor oral 100 mg/kg single 20 h before, cycle 7 days): 40% | Relative remission rate (%) ([1]; Example 110, Irinotecan (CPT-11) intraperitoneal injection 240 mg/kg single, CDK inhibitor oral 100 mg/kg single 22 h before, cycle 7 days): 40% | Relative remission rate (%) ([1]; Example 111, Irinotecan (CPT-11) intraperitoneal injection 240 mg/kg single, CDK inhibitor oral 100 mg/kg single 24 h before, cycle 7 days): 40% | Relative remission rate (%) ([1]; Example 112, Irinotecan (CPT-11) intraperitoneal injection 240 mg/kg single, CDK inhibitor oral 100 mg/kg single 48 h before, cycle 7 days): 0% | Relative remission rate (%) ([1]; Example 226, Topotecan intraperitoneal injection 10 mg/kg single, CDK inhibitor oral 150 mg/kg single, 6 h before, 14 days): 40% | Relative remission rate ([2]; Example 295, Fluorouracil (5-Fu) intramuscular injection 200 mg/kg single, CDK inhibitor oral 100 mg/kg single, 22 h before, cycle 7 days): 60% | Relative remission rate ([2]; Example 296, Oxaliplatin intraperitoneal injection 20 mg/kg single, CDK inhibitor oral 100 mg/kg single, 0.5 h before, cycle 8 days): 50% | Relative remission rate ([2]; Example 297, Oxaliplatin intraperitoneal injection 20 mg/kg single, CDK inhibitor oral 100 mg/kg single, 4 h before, cycle 8 days): 40% | Relative remission rate ([2]; Example 298, Oxaliplatin intraperitoneal injection 20 mg/kg single, CDK inhibitor oral 100 mg/kg single, 8 h before, cycle 8 days): 60% | Relative remission rate ([2]; Example 299, Oxaliplatin intraperitoneal injection 20 mg/kg single, CDK inhibitor oral 100 mg/kg single, 12 h before, cycle 8 days): 60% | Relative remission rate ([2]; Example 300, Oxaliplatin intraperitoneal injection 20 mg/kg single, CDK inhibitor oral 100 mg/kg single, 24 h before, cycle 8 days): 40% | Relative remission rate ([2]; Example 301, Oxaliplatin intraperitoneal injection 20 mg/kg single, CDK inhibitor oral 100 mg/kg single, 48 h before, cycle 8 days): 0% | Relative remission rate ([2]; Example 312, Irinotecan (CPT-11) intravenous injection 260 mg/kg single, CDK inhibitor oral 150 mg/kg single, 14 h before, cycle 7 days): 50% | Relative remission rate ([2]; Example 324, Gemcitabine and paclitaxel intraperitoneal injection 60 (G) 10 (P) mg/kg single, CDK inhibitor oral 150 mg/kg single, 24 h before, cycle 8 days): 60% | Relative remission rate ([2]; Example 342, Methotrexate (MTX) intraperitoneal injection 300 mg/kg single, CDK inhibitor oral 150 mg/kg single, 8 h before, cycle 7 days): 30% | Relative remission rate of other administration mode ([3]; Example 429, Carboplatin intravenous injection 120 mg/kg single, CDK inhibitor intramuscular injection 150 mg/kg single, 8 h before, cycle 10 days): 20% | Relative remission rate of oral administration ([3]; Example 429, Carboplatin intravenous injection 120 mg/kg single, 8 h before, cycle 10 days): 60% | Relative remission rate of other administration mode ([3]; Example 430, Gemcitabine intraperitoneal injection 120 mg/kg single, CDK inhibitor intraperitoneal injection 150 mg/kg single, 0.5 h before, cycle 8 days): 10% | Relative remission rate of oral administration ([3]; Example 430, Gemcitabine intraperitoneal injection 120 mg/kg single, 0.5 h before, cycle 8 days): 40% | Relative remission rate of other administration mode ([3]; Example 431, Gemcitabine intraperitoneal injection 120 mg/kg single, CDK inhibitor intraperitoneal injection 150 mg/kg single, 4 h before, cycle 8 days): 10% | Relative remission rate of oral administration ([3]; Example 431, Gemcitabine intraperitoneal injection 120 mg/kg single, 4 h before, cycle 8 days): 40% | Relative remission rate of other administration mode ([3]; Example 432, Gemcitabine intraperitoneal injection 120 mg/kg single, CDK inhibitor intraperitoneal injection 150 mg/kg single, 8 h before, cycle 8 days): 10% | Relative remission rate of oral administration ([3]; Example 432, Gemcitabine intraperitoneal injection 120 mg/kg single, 8 h before, cycle 8 days): 40% | Relative remission rate of other administration mode ([3]; Example 433, Gemcitabine intraperitoneal injection 120 mg/kg single, CDK inhibitor intraperitoneal injection 150 mg/kg single, 12 h before, cycle 8 days): 20% | Relative remission rate of oral administration ([3]; Example 433, Gemcitabine intraperitoneal injection 120 mg/kg single, 12 h before, cycle 8 days): 60% | Relative remission rate of other administration mode ([3]; Example 434, Gemcitabine intraperitoneal injection 120 mg/kg single, CDK inhibitor intraperitoneal injection 150 mg/kg single, 24 h before, cycle 8 days): 20% | Relative remission rate of oral administration ([3]; Example 434, Gemcitabine intraperitoneal injection 120 mg/kg single, 24 h before, cycle 8 days): 60%
